Source: patent EP2090576A1, “6-halo-pyrazolo[1,5-a]pyridines, a process for their preparation and their use as metabotropic glutamate receptor (mGluR) modulators” (Merz Pharma GmbH & Co. KGaA, priority 2008, dated 2009)

Experiments:
[1] = target: T1, human metabotropic glutamate receptor mGluR5 (Homo sapiens, UniProt P41594); assay: Cytosolic Calcium studies with stably transfected cells (FLIPR); type: cell-based; settings: CHO-K1 cells with inducible human mGluR5; test compound added 5 minutes before L-quisqualic acid (concentration giving ~80% of the maximal signal); read-out: mGluR5_FLIPR_h_ CHO_NAM IC50
T1 construct: expressed in transfected cells; host or cells: CHO-K1 cells (IPTG-inducible expression)
Description: Cytosolic Calcium studies with stably transfected cells:
Chinese hamster ovary cells (CHO-K1 cells), stably transfected for inducible expression of a human metabotropic glutamate receptor mGluR5, are seeded into black clear bottom 96 well plates at a density of 35.000 cells per well. The standard growth medium used (Dulbecco's modified Eagle Medium, DMEM plus L-proline) contains the appropriate inducer isopropyl-β-D-thiogalactopyranosid (IPTG) to achieve optimal receptor expression. One day after seeding the growth medium is exchanged for reconstituted Ca-Kit (Molecular Devices, USA) and incubated for one hour. Ca-Kit is reconstituted in an assay buffer containing 20 mM HEPES pH 7.4, glutamic-pyruvate transaminase, pyridoxal phosphate and sodium pyruvate in Hank's balanced salt solution (HBBS). Agonistic compounds to the receptor elicit increases in cytosolic calcium which can be measured as increases in fluorescence signals by use of a fluorescence imaging plate reader (Molecular Devices).
(§1) The fluorescence signal increase after addition of agonist reflects the increase of cytosolic calcium. Inconsistencies in the amount of cells per well are normalised by using the spatial uniformity correction of the FLIPR software. The mean of replicated temporal data (n=3-5) is calculated and used for graphical representation. For the evaluation of the pharmacology, the calcium changes in response to different concentrations of agonist or antagonist are determined using a maximum minus minimum (MaxMin) calculation.
(§2) All responses (RFU-values) are determined as percentage of control (= maximum response). EC50 and IC50 are calculated according the logistic equation using GraFit 5.0 (Erithacus Software, GB) or Prism 4.0 (GraphPad Software, USA).

mGluR5 receptors = target: T2, mGluR5 receptors (Rattus norvegicus, UniProt P31424); assay: Cytosolic Calcium studies with astrocytes (astrocyte culture test, FLIPR); type: cell-based; settings: primary rat cortical astrocytes, 14-15 DIV; 10 minutes pre-incubation, L-quisqualate 100 nM; read-out: mGluR5_FLIPRr_rpA IC50
T2 construct: Primary astrocyte cultures are prepared from cortices of newborn rats; endogenous in cells; host or cells: primary cortical astrocytes from Sprague-Dawley rat pups (2-4 d old), 14-15 DIV
Description: Primary astrocyte cultures are prepared from cortices of newborn rats as described by Booher and Sensenbrenner (1972, Neurobiology 2(3):97-105). Briefly, Sprague-Dawley rat pups (2 - 4 d old) are decapitated and neocortices are dissected, disintegrated with a nylon filter (pore size 80 µm) and carefully triturated. The cell suspension is plated on poly-D-lysine pre-coated flasks (Costar, Netherlands) and cultivated in Dulbecco's Modified Eagle's Medium (DMEM, Invitrogen, Germany) supplemented with 10% foetal calf serum (FCS, Sigma, Germany), 4 mM glutamine and 50 µg/ml gentamycin (both Biochrom, Germany) at 37°C in a humidified atmosphere of 5% CO2 / 95% air for 7 d with exchanging the medium at day 2 and 6.
After 7 days in vitro (DIV), cells are shaken overnight at 250 rpm to remove oligodendrocytes and microglia. The next day, astrocytes are rinsed twice with CMF-PBS (calcium- and magnesium-free phosphate buffered saline, Biochrom, Germany), trypsinized and subplated on poly-D-lysine pre-coated 96-well plates (Greiner, Germany) at a density of 40,000 cells/well. 24 h after establishing the secondary culture the astrocytes are rinsed with PBS^++ (phosphate buffered saline, Biochrom, Germany) and fed with astrocyte-defined medium (ADM) consisting of DMEM containing 1x G5-supplement (Invitrogen, Germany), 0.5 µg/ml heparan sulfate, and 1.5 µg/ml fibronectin (both Sigma, Germany) (Miller et al., (1993) Brain Res. 618(1):175-8). 3 d later the medium is exchanged and the cells incubated for another 2-3 d, so that at the time of experiments astrocytes are 14-15 DIV.
Cytosolic Calcium studies with astrocytes:
The increase of cytosolic calcium after stimulation with the mGluR5 agonist L-quisqualate is measured using a fluorometric imaging plate reader (FLIPR) and the Ca-Kit (both Molecular Devices). Prior to addition of agonist or antagonist the medium is aspirated and cells are loaded for 2 h at RT with 150 µl of loading buffer consisting of Ca-sensitive dye reconstituted in sodium chloride (123 mM), potassium chloride (5.4 mM), magnesium chloride (0.8 mM), calcium chloride (1.8 mM), D-glucose (15 mM), and HEPES (20 mM), pH 7.3. Subsequently, plates are transferred to FLIPR to detect calcium increase with the addition of L-quisqualate (100 nM) measured as relative fluorescence units (RFU). If antagonists are tested, these compounds are pre-incubated for 10 minutes at RT before addition of the respective agonist.
as §1, §2

[2] = target: T3, transmembrane allosteric modulatory sites of mGluR5 receptors (Rattus norvegicus, UniProt P31424); assay: [3H]-MMPEP binding assay in rat cortical membranes; settings: radioligand [3H]-MMPEP, 60 minutes at room temperature, read-out: mGluR5_M_ MPEP_r_CTX_ IC50
T3 construct: from tissue; host or cells: rat cerebral cortex membranes (male Sprague-Dawley rats)
Description: Preparation of rat cortical membranes:
The resulting pellet is re-suspended in 20 volumes of distilled water and centrifuged for 20 minutes at 8000 x g. […] All centrifugation steps are carried out at 4°C.
Alternatively, assays are performed with [^3H]-MMPEP (2-(3-methoxyphenylethynyl)-6-methylpyridine hydrochloride) as radioligand. […] Incubations are terminated using a Millipore filter system.

T3 sequence (P31424 21-1203): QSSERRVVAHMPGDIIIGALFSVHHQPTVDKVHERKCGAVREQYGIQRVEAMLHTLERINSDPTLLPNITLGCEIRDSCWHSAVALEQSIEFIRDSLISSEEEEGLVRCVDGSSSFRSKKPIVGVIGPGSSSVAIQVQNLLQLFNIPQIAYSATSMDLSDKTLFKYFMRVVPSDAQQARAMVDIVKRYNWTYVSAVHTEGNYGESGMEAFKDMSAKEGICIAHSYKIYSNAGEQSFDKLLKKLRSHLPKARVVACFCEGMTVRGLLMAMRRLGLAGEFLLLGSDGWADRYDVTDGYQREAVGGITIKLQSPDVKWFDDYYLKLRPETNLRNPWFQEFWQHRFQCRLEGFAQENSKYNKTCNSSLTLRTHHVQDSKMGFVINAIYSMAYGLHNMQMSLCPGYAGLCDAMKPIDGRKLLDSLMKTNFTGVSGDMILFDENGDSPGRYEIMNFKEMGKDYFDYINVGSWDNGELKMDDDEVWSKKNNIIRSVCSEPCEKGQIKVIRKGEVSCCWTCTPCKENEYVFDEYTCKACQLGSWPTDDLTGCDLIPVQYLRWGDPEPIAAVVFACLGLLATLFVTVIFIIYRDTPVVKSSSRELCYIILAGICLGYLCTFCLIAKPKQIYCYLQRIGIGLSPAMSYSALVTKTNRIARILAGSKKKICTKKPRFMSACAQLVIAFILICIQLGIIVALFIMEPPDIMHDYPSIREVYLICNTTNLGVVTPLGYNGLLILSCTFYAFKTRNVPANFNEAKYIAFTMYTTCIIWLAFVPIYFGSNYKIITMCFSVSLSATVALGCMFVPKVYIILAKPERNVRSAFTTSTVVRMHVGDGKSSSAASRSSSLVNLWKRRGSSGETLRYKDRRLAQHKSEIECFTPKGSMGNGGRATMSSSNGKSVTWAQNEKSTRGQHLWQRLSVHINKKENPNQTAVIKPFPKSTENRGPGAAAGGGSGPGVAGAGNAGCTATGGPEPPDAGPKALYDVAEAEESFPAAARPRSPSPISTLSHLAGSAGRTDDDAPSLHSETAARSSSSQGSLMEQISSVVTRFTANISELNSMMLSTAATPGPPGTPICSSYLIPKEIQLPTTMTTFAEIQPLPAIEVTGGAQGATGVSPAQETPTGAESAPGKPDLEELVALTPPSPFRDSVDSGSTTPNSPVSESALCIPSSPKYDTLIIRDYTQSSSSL
T2 sequence (P31424 21-1203): as above
T1 sequence (P41594 21-1212): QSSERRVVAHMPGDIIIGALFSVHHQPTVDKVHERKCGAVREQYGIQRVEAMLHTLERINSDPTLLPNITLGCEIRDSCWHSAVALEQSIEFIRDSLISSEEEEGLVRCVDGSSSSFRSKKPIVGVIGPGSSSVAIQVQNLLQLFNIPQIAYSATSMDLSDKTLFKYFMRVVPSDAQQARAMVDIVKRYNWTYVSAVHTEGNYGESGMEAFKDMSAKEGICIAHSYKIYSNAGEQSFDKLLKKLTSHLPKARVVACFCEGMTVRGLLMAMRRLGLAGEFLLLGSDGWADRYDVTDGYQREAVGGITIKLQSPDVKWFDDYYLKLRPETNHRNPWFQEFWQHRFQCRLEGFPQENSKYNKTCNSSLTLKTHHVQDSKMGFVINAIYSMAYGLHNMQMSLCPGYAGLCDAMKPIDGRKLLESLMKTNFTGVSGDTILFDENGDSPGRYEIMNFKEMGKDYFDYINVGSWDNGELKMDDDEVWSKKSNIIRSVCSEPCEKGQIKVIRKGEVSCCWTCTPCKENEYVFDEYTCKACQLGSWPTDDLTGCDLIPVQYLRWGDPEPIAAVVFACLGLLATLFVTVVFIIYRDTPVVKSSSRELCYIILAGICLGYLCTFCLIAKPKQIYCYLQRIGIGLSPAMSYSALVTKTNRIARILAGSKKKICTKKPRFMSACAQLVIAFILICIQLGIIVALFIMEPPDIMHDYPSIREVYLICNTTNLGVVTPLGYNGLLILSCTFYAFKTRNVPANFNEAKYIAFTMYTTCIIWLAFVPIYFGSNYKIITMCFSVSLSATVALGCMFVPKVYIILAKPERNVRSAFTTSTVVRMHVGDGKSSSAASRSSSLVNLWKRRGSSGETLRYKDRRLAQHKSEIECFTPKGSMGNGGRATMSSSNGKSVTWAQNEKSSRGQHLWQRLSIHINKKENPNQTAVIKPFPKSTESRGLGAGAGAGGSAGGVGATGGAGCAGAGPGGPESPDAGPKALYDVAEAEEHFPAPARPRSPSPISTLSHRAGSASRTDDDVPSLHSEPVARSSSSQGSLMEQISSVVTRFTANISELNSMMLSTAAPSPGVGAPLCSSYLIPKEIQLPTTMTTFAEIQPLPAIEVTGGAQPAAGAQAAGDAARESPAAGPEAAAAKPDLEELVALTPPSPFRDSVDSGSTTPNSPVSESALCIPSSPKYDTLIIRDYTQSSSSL

IC50 [1] [nM] | IC50 (mGluR5 receptors) [nM] | Compound | further results
166 | – | CC1c2ccoc2CCN1C(=O)c1cc2ccc(Br)cn2n1 (stereo not shown) [drawing 1014, (6-Bromo-pyrazolo[1,5-a]pyridin-2-yl)-(4-methyl-6,7-dihydro-4H-furo[3,2-c]pyridin-5-yl)-methanone] | –
306 | – | O=C(c1cc2ccc(Br)cn2n1)N1CCc2ncc(Br)cc2C1 [drawing 1011, (3-Bromo-7,8-dihydro-5H-[1,6]naphthyridin-6-yl)-(6-bromo-pyrazolo[1,5-a]pyridin-2-yl)-methanone] | –
114 | – | C[C@@H]1c2ccccc2CCN1C(=O)c1cc2c(Cl)cc(Cl)cn2n1 [drawing 1016, (4,6-Dichloro-pyrazolo[1,5-a]pyridin-2-yl)-((R)-1-methyl-3,4-dihydro-1H-isoquinolin-2-yl)-methanone] | –
– | 156 | CN1c2ccccc2CCN1C(=O)c1cc2ccc(Br)cn2n1 [drawing 1023, (6-Bromo-pyrazolo[1,5-a]pyridin-2-yl)-(1-methyl-3,4-dihydro-1H-cinnolin-2-yl)-methanone] | –
178 | – | Cc1ccc2n1CCN(C(=O)c1cc3ccc(Br)cn3n1)C2C (stereo not shown) [drawing 1013, 6-bromo-2-[(1,6-dimethyl-3,4-dihydropyrrolo[1,2-a]pyrazin-2(1H)-yl)carbonyl]pyrazol o[1,5-a]pyridine] | –
– | 51 | CC1c2ccsc2CCN1C(=O)c1cc2ccc(Br)cn2n1 (stereo not shown) [drawing 1020, (6-Bromo-pyrazolo[1,5-a]pyridin-2-yl)-(4-methyl-6,7-dihydro-4H-thieno[3,2-c]pyridin-5-yl)-methanone] | –
– | – | CC1c2ccccc2CCN1C(=O)c1cc2ccc(Br)cn2n1 (stereo not shown) [drawing 1024, (6-Bromo-pyrazolo[1,5-a]pyridin-2-yl)-(1-methyl-3,4-dihydro-1H-isoquinolin-2-yl)-methanone] | IC50 [2]: 400 nM
– | 151 | CC1c2ccccc2CCN1C(=O)c1cc2ccc(Br)cn2n1 (stereo not shown) [drawing 1017, (6-Bromo-pyrazolo[1,5-a]pyridin-2-yl)-(1-methyl-3,4-dihydro-1H-isoquinolin-2-yl)-methanone] | –
– | 42.5 | CC1c2ccoc2CCN1C(=O)c1cc2ccc(Br)cn2n1 (stereo not shown) [drawing 1022, (6-Bromo-pyrazolo[1,5-a]pyridin-2-yl)-(4-methyl-6,7-dihydro-4H-furo[3,2-c]pyridin-5-yl)-methanone] | –
102 | – | CC1c2ccccc2CCN1C(=O)c1cc2ccc(Cl)cn2n1 (stereo not shown) [drawing 1010, (6-Chloro-pyrazolo[1,5-a]pyridin-2-yl)-(1-methyl-3,4-dihydro-1H-isoquinolin-2-yl)-methanone] | –
– | 148 | Cc1ccc2n1CCN(C(=O)c1cc3ccc(Br)cn3n1)C2C (stereo not shown) [drawing 1021, 6-bromo-2-[(1,6-dimethyl-3,4-dihydropyrrolo[1,2-a]pyrazin-2(1 H)-yl)carbonyl]pyrazolo[1,5-a]pyridine] | –
– | – | CC1c2ccoc2CCN1C(=O)c1cc2ccc(Br)cn2n1 (stereo not shown) [drawing 1026, (6-Bromo-pyrazolo[1,5-a]pyridin-2-yl)-(4-methyl-6,7-dihydro-4H-furo[3,2-c]pyridin-5-yl)-methanone] | IC50 [2]: 655 nM
– | – | CC1c2ccccc2CCN1C(=O)c1cc2ccc(Cl)cn2n1 (stereo not shown) [drawing 1025, (6-Chloro-pyrazolo[1,5-a]pyridin-2-yl)-(1-methyl-3,4-dihydro-1H-isoquinolin-2-yl)-methanone] | IC50 [2]: 260 nM
410 | – | CN1c2ccccc2CCN1C(=O)c1cc2ccc(Br)cn2n1 [drawing 1015, (6-Bromo-pyrazolo[1,5-a]pyridin-2-yl)-(1-methyl-3,4-dihydro-1H-cinnolin-2-yl)-methanone] | –
– | 45 | CC1c2ccccc2CCN1C(=O)c1cc2ccc(Cl)cn2n1 (stereo not shown) [drawing 1018, (6-Chloro-pyrazolo[1,5-a]pyridin-2-yl)-(1-methyl-3,4-dihydro-1H-isoquinolin-2-yl)-methanone] | –
218 | – | CC1c2ccccc2CCN1C(=O)c1cc2ccc(Br)cn2n1 (stereo not shown) [drawing 1009, (6-Bromopyrazolo[1,5-a]pyridin-2-yl)-(1-methyl-3,4-dihydro-1H-isoquinolin-2-yl)-methanone] | –
167 | – | CC1c2ccsc2CCN1C(=O)c1cc2ccc(Br)cn2n1 (stereo not shown) [drawing 1012, (6-Bromo-pyrazolo[1,5-a]pyridin-2-yl)-(4-methyl-6,7-dihydro-4H-thieno[3,2-c]pyridin-5-yl)-methanone] | –
– | 108 | O=C(c1cc2ccc(Br)cn2n1)N1CCc2ncc(Br)cc2C1 [drawing 1019, (3-Bromo-7,8-dihydro-5H-[1,6]naphthyridin-6-yl)-(6-bromo-pyrazolo[1,5-a]pyridin-2-yl)-methanone] | –
– | – | C[C@@H]1c2ccccc2CCN1C(=O)c1cc2c(Cl)cc(Cl)cn2n1 [drawing 1027, (4,6-Dichloro-pyrazolo[1,5-a]pyridin-2-yl)-((R)-1-methyl-3,4-dihydro-1H-isoquinolin-2-yl)-methanone] | IC50 [2]: 43 nM
